Source: patent publication US20190100790A1, “DETERMINATION OF NOTCH PATHWAY ACTIVITY USING UNIQUE COMBINATION OF TARGET GENES” (KONINKLIJKE PHILIPS N.V., priority 2017, published 2019)

System: Notch cellular signaling pathway
Experiment: Notch pathway activity predicted by Bayesian network model from target gene expression, MOLT4 cell line (data set GSE6495)
Type: cell-based, human
Conditions: MOLT4 cells, 48 hours, 5 μM
From the text: Herein, an exemplary Bayesian network model as shown in FIG. 2 was used to model the transcriptional program of the Notch cellular signaling pathway in a simple manner. The model consists of three types of nodes: (a) a transcription factor (TF) element (with states “absent” and “present”) in a first layer 1; (b) target genes TG1, TG2, TGn (with states “down” and “up”) in a second layer 2, and; (c) measurement nodes linked to the expression levels of the target genes in a third layer 3. These can be microarray probesets PS1,1, PS1,2, PS1,3, PS2,1, PSn,1, PSn,m (with states “low” and “high”), as preferably used herein, but could also be other gene expression measurements such as RNAseq or RT-qPCR.
A suitable implementation of the mathematical model, herein, the exemplary Bayesian network model, is based on microarray data. The model describes (i) how the expression levels of the target genes depend on the activation of the TF element, and (ii) how probeset intensities, in turn, depend on the expression levels of the respective target genes. For the latter, probeset intensities may be taken from fRMA pre-processed Affymetrix HG-U133Plus2.0 microarrays, which are widely available from the Gene Expression Omnibus (GEO, www.ncbi.nlm.nih.gov/geo) and ArrayExpress (www.ebi.ac.uk/arrayexpress). […]

C[C@H](NC(=O)Cc1cc(F)cc(F)c1)C(=O)N[C@H](C(=O)OC(C)(C)C)c1ccccc1 [DAPT] was tested, and the “Notch cellular signaling pathway activity (odds that the TF element is present)” value (18 target genes shortlist model, vs untreated (FIG. 11)) was “decrease in Notch activity” and the “Notch cellular signaling pathway activity (odds that the TF element is present)” value (26 target genes list model, vs untreated (FIG. 12)) was “decrease in Notch activity”.
